# Experimental data reported in patent US20130183268A1, “DRUG COMBINATIONS WITH FLUORO-SUBSTITUTED OMEGA-CARBOXYARYL DIPHENYL UREA FOR THE TREATMENT AND PREVENTION OF DISEASES AND CONDITIONS” (BAYER HEALTHCARE LLC, priority 2010, published 2013).
# Columns and labels:
# [1] = Pharmacokinetics in patients after 160 mg regorafenib co-precipitate tablet; conditions: for AUC Day 21 / Cmax Day 21: analyte in plasma, 160 mg regorafenib co-precipitate tablet daily, day 21, n = 9, geometric mean; for systemic exposure: colon cancer patients, 160 mg coprecipitate tablets daily for 21 days; for fold increase in Cmax / fold increase in the AUC: continuous qd dosing for 19 days, in comparison to the first dose; for Fold change AUC / Fold change Cmax: day 21 versus day 1
# [2] = Metabolite profile, incubation of [14C]regorafenib with liver microsomes (man); type: in vitro ADME; conditions: [14C]regorafenib 20 μM, liver microsomes 0.5 mg/mL, 60 min
# Experimental: (§1) N-oxide (M-2), hydroxymethyl (M-3), de-methylated (M-4) and N-oxide-demethylated (M-5) metabolites of the fluoro-substituted diaryl urea of Formula (I) are shown below. They were identified as metabolites of regorafenib in vitro upon incubation with liver enzymes of various mammalian species (man, dog, rat, mouse). Studies reveal that its metabolites show high protein binding in man and animal species (data not shown). [table]
# [3] = Metabolite profile, incubation of [14C]regorafenib with liver microsomes (dog); type: in vitro ADME, Beagle dog; conditions: [14C]regorafenib 20 μM, liver microsomes 0.5 mg/mL, 60 min
# [4] = Metabolite profile, incubation of [14C]regorafenib with liver microsomes (rat); type: in vitro ADME, Wistar rat; conditions: [14C]regorafenib 20 μM, liver microsomes 0.5 mg/mL, 60 min
# Experimental: as §1
# [5] = Metabolite profile, incubation of [14C]regorafenib with liver microsomes (mouse); type: in vitro ADME, NMRI mouse; conditions: [14C]regorafenib 20 μM, liver microsomes 0.5 mg/mL, 60 min
# Experimental: as §1
# [6] = analyte in plasma after 160 mg regorafenib co-precipitate tablet, day 1, n = 9, geometric mean
Structure (SMILES),"Cmax Day 1 [1, 6]",AUC Day 21 [1],Cmax Day 21 [1],systemic exposure [1],fold increase in Cmax [1],fold increase in the AUC [1],Fold change AUC [1],Fold change Cmax [1],"% of radioactivity, Man [2]","% of radioactivity, Beagle dog [3]","% of radioactivity, Wistar rat [4]","% of radioactivity, NMRI mouse [5]","AUC Day 1 [1, 6]"
"NC(=O)c1cc(Oc2ccc(NC(=O)Nc3ccc(Cl)c(C(F)(F)F)c3)c(F)c2)cc[n+]1[O-] [Example M-5, 4{4-[3-(4-chloro-3-trifluoromethylphenyl)-ureido]-3-fluorophenoxy}-1-hydroxy-pyridine-2-carboxylic acid amide]",0.0755 mg/L,51.8 mg·h/L,3.14 mg/L,very similar to regorafenib,42 fold,25 fold,25.1,41.6,,,,,
O=C(Nc1ccc(Cl)c(C(F)(F)F)c1)Nc1ccc(Oc2ccnc(C(=O)NCO)c2)cc1F [Example M-3],,,,,,,,,7.7%,25.6%,19%,12%,
"CNC(=O)c1cc(Oc2ccc(NC(=O)Nc3ccc(Cl)c(C(F)(F)F)c3)c(F)c2)cc[n+]1[O-] [Example M-2, 4{4-[3-(4-chloro-3-trifluoromethylphenyl)-ureido]-3-fluorophenoxy}-1-hydroxy-pyridine-2-carboxylic acid methylamide]",0.764 mg/L,55.4 mg·h/L,3.57 mg/L,very similar to regorafenib,5 fold,2 fold,2.3,4.7,29.7%,3.6%,5.4%,26.9%,24.0 mg·h/L
